Experimental data as given in patent US20230226095A1, “METHODS AND COMPOSITIONS FOR TREATING C[…]” (The Children's Medical Center Corporation, priority 2020, published 2023).

B1: recombinant amphiregulin: recombinant epidermal growth factor-like cytokine amphiregulin, necessary for tissue repair (protein, UniProt P15514 101-187, looked up)
Amphiregulin: SVRVEQVVKPPQNKTESENTSDKPKRKKKGGKNGKNRRNRKKKNPCNAEFQNFCIHGECKYIEHLEAVTCKCQQEYFGERCGEKSMK

Experiments:
Treg cells = experiment: In vitro induction of Notch4 expression in Treg cells; type: cell-based; conditions: Treg cells from PBS or Poly I:C-treated mice
Experimental: To further elucidate the mechanisms of Notch4 induction in Treg cells, in vitro studies were conducted to examine the capacity of Poly I:C and cytokine treatment to upregulate Notch4 expression in Treg cells isolated from PBS or Poly I:C-treated mice.

lung tissue Treg cells = experiment: Daily intra-tracheal instillation of Poly I:C, flow cytometry of lung T cells; type: in vivo, mice
Text: To investigate the mechanism by which Notch4 licenses lung tissue inflammation in viral respiratory infections, its role in Poly I:C-induced airway inflammation was first examined. Poly I:C stimulates Toll like receptor 3 and the downstream viral RNA sensors cytoplasmic retinoic acid-inducible gene I (RIG-I) and melanoma differentiation-associated protein 5 (MDA5), thus providing a proxy model of RNA viral infections (Broggi et al., 2020; Iwasaki and Pillai, 2014; Kato et al., 2006). […] Treg cell specific deletion of Notch4 using a Foxp3-driven Cre recombinase (Foxp3YFPCre) and floxed Notch4 allele (Foxp3YFPCreNotch4Δ/Δ) protected the mice from the weight loss induced by the Poly I:C treatment (data not shown).
(§1) Polyinosinic-polycytidylic acid (Poly I:C) mouse model. Mice were treated intratracheally with 2.5 mg/kg of Poly I:C HMW (InvivoGen) daily for six consecutive days. The weight of the mice was recorded daily upon application of the Poly I:C. The mice were subjected to airway hyperresponsiveness at day 7, then euthanized and analyzed. For blockading amphiregulin, mice were treated with a peptide spanning amino acids 91140 of the middle region of the human amphiregulin preproprotein (amphiregulin91-140 peptide; Mybiosource). The peptide was given intratracheally at 10 µg/ml in PBS in a final volume of 100 µl. For the amphiregulin neutralizing antibody tests, the mice were given intraperitoneally 20 µg of goat anti-mouse amphiregulin mAb (clone AF989; R&D systems) or isotype control mAb (clone AB-108-C; R&D systems) daily for the duration of the experiment.

lung macrophages = experiment: Lung macrophage M1/M2 polarization in vitro upon Poly I:C treatment; type: cell-based, mice; conditions: in vitro treatment with Poly I:C
Experimental: Regulatory T-cell co-cultures with macrophages. Macrophages cells are isolated from lungs of Poly I:C-treated mice. Macrophages were isolated based on CD45^+ F4/80^+ MHCII^+. Macrophages were then co-cultured (at 1:1 concentration) with lungs Treg cells from Foxp3^YFPCre or Foxp3^YFPCreNotch4^Δ/Δ mice Poly I:C-treated mice. Cells were treated with Poly I:C at a concentration of 10 ug/ml for three days. After 72 h, M1 (F4/80^+ MHCII^+ CD68^+ CD80^+CD86^+) and M2 (F4/80^+ MHCII^+ CD163^+ CD206^+) polarization was measured by flow cytometric analysis.
M1 and M2 gating strategy. M1 was defined as follows: CD45^+CD4^-F4/80^+MHCII^+ CD68^+ CD80^+CD86^+ while M2 macrophages were defined as follows: CD45^+CD4^-F4/80^+ MHCII+CD163+CD206+.

[1] = tested on: Foxp3YFPCre mice treated with Poly I:C; experiment: Recombinant amphiregulin therapy in Poly I:C-induced lung inflammation; type: in vivo; conditions: data not shown
Text: To establish the role of amphiregulin in the protection against lung inflammation induced by Notch4 depletion, the capacity of recombinant amphiregulin therapy to rescue Poly I:C-induced lung inflammation was examined. […] Recombinant amphiregulin also reversed the skewing of lung macrophages towards an M1 phenotype upon in vitro treatment with Poly I:C (FIG. 7H), mirroring the same effect of Foxp3YFPCreNotch4Δ/Δ Treg cells (data not shown).
as §1

[2] = daily intra-tracheal for 6 consecutive days

Molecule | Notch4 expression in lung Treg cells (Treg cells) | Notch4 expression in splenic Treg cells (Treg cells) | expression of Hippo pathway effector Yap in lung tissue Treg cells (lung tissue Treg cells; Poly I:C treatment) | expression of Wnt pathway effector beta-Catenin in lung tissue Treg cells (lung tissue Treg cells; Poly I:C treatment) | expression of Notch4 on CD4+ Teff cells (lung tissue Treg cells; [2]) | frequencies and absolute numbers of Notch4 expressing lung tissue Treg cells and MFI of Notch4 (lung tissue Treg cells; [2]) | skewing of lung macrophages towards an M1 phenotype (lung macrophages) | epithelial barrier function ([1]; Poly I:C treatment) | inflammatory responses induced by Poly I:C treatment [1] | weight loss induced by Poly I:C treatment [1]
Polyinosinic-polycytidylic acid [Poly I:C] | increased Notch4 expression | not splenic | potently induced | unchanged | minimal expression | sharp progressive increase | – | – | – | –
B1 | – | – | – | – | – | – | reversed | restoration of an intact epithelial barrier function | largely abrogated | largely abrogated
